Patent publication US9822099B2, “Triazole derivatives” (priority 2013, dated 2017)
Marks after values point to notes of the source that are not given here.

Experiments:
Uromyces appendiculatus = test: Example F: in vivo preventive test on Uromyces appendiculatus (bean rust); details: bean plants, preventive spray, evaluated 11 days after inoculation
Description: (§1) The young plants of bean are treated by spraying the active ingredient prepared as described above. Control plants are treated only with an aqueous solution of acetone/Dimethyl sulfoxide/Tween®. After 24 hours, the plants are contaminated by spraying the leaves with an aqueous suspension of Uromyces appendiculatus spores.

Leptosphaeria nodorum = test: Example K: Leptosphaeria nodorum test (wheat)/preventive; type: in vivo; details: 500 ppm of active ingredient, preventive, evaluated 8 days after inoculation
Description: Solvent: 49 parts by weight of N,N-dimethylacetamide Emulsifier: 1 part by weight of alkylaryl polyglycol ether To produce a suitable preparation of active compound, 1 part by weight of active compound or active compound combination is mixed with the stated amounts of solvent and emulsifier, and the concentrate is diluted with water to the desired concentration. To test for preventive activity, young plants are sprayed with the preparation of active compound or active compound combination at the stated rate of application. After the spray coating has been dried, the plants are sprayed with a spore suspension of Leptosphaeria nodorum.

Sphaerotheca fuliginea = test: Example E: in vivo preventive test on Sphaerotheca fuliginea (powdery mildew on cucurbits); details: gherkin plants, preventive spray, evaluated 15 days after inoculation
Description: as §1, with “gherkin” for “bean”, “Sphaerotheca fuliginea” for “Uromyces appendiculatus”

[1] = system: Blumeria graminis f. sp. hordei; test: Example G: Blumeria test (barley)/preventive; type: in vivo; details: 500 ppm of active ingredient, preventive, evaluated 7 days after inoculation
Description: Solvent: 49 parts by weight of N,N-dimethylacetamide Emulsifier: 1 part by weight of alkylaryl polyglycol ether To produce a suitable preparation of active compound, 1 part by weight of active compound or active compound combination is mixed with the stated amounts of solvent and emulsifier, and the concentrate is diluted with water to the desired concentration. To test for preventive activity, young plants are sprayed with the preparation of active compound or active compound combination at the stated rate of application. After the spray coating has been dried, the plants are dusted with spores of Blumeria graminis f. sp. hordei.

[2] = pH 2.7
Puccinia recondita = test: Example B: in vivo preventive test on Puccinia recondita (brown rust on wheat); details: wheat plants, preventive spray, evaluated 11 days after inoculation
Description: as §1, with “wheat” for “bean”, “Puccinia recondita” for “Uromyces appendiculatus”

Fusarium graminearum = type: in vivo; details: 500 ppm of active ingredient; barley, preventive; evaluated 5 days after inoculation
Pyrenophora teres = test: Example C: in vivo preventive test on Pyrenophora teres (net blotch on barley); details: barley plants, preventive spray, evaluated 14 days after inoculation
Description: as §1, with “barley” for “bean”, “Pyrenophora teres” for “Uromyces appendiculatus”

Pyricularia oryzae = type: in vivo; details: 500 ppm of active ingredient; rice, preventive; evaluated 8 days after inoculation
Botrytis cinerea = test: Example A: in vivo preventive test on Botrytis cinerea (grey mould); details: gherkin plants, preventive spray, evaluated 4 to 5 days after inoculation
Description: as §1, with “gherkin” for “bean”, “Botrytis cinerea” for “Uromyces appendiculatus”

Fusarium culmorum = test: Example H: Fusarium culmorum-test (wheat)/curative; type: in vivo; details: 500 ppm of active ingredient, curative, evaluated 5 days after inoculation
Description: (§2) Solvent: 49 parts by weight of N,N-dimethylacetamide
(§3) Emulsifier: 1 part by weight of alkylaryl polyglycol ether
(§4) To produce a suitable preparation of active compound, 1 part by weight of active compound or active compound combination is mixed with the stated amounts of solvent and emulsifier, and the concentrate is diluted with water to the desired concentration.
To test for curative activity, young plants are slightly injured by using a sandblast and afterwards they are sprayed with a conidia suspension of Fusarium culmorum and placed for 24 hours in a greenhouse under a translucent incubation cabinet at a temperature of approximately 22° C. and a relative atmospheric humidity of approximately 100% and are subsequently sprayed with the preparation of active compound at the stated rate of application.
After the spray coating has been dried, the plants remain in the greenhouse under translucent incubation cloches at a temperature of approximately 22° C. and a relative atmospheric humidity of approximately 100%.
(§5) The test is evaluated 5 days after the inoculation. 0% means an efficacy which corresponds to that of the untreated control, while an efficacy of 100% means that no disease is observed.

Septoria tritici = test: Example D: in vivo preventive test on Septoria tritici (leaf spot on wheat); details: wheat plants, preventive spray, evaluated 24 days after inoculation
Description: as §1, with “wheat” for “bean”, “Septoria tritici” for “Uromyces appendiculatus”

[3] = system: Fusarium nivale (var. majus); test: Example J: Fusarium nivale (var. majus)-test (wheat)/preventive; type: in vivo; details: 500 ppm of active ingredient, preventive, evaluated 5 days after inoculation
Description: as §2, §3, §4
To test for preventive activity, young plants are sprayed with the preparation of active compound or active compound combination at the stated rate of application.
After the spray coating has been dried, the plants are slightly injured by using a sandblast and afterwards they are sprayed with a conidia suspension of Fusarium nivale (var. majus).
The plants are placed in the greenhouse under a translucent incubation cabinet at a temperature of approximately 10° C. and a relative atmospheric humidity of approximately 100%.
as §5

Venturia inaequalis = test: Example O: Venturia test (apples)/preventive; type: in vivo; details: 100 ppm of active ingredient, preventive, evaluated 10 days after inoculation
Description: Solvent: 24.5 parts by weight of acetone • 24.5 parts by weight of dimethylacetamide Emulsifier: 1 part by weight of alkylaryl polyglycol ether To produce a suitable preparation of active compound, 1 part by weight of active compound is mixed with the stated amounts of solvent and emulsifier, and the concentrate is diluted with water to the desired concentration. To test for preventive activity, young plants are sprayed with the preparation of active compound at the stated rate of application.

Phakopsora pachyrhizi = test: Example L: Phakopsora test (soybeans)/preventive; type: in vivo; details: preventive, evaluated 7 days after inoculation

Compound	Eff. % (Uromyces appendiculatus; 500 ppm of active ingredient) [%]	Eff. % (Leptosphaeria nodorum) [%]	Eff. % (Sphaerotheca fuliginea; 500 ppm of active ingredient) [%]	Eff. % [1] [%]	LogP [2]	Eff. % (Puccinia recondita; 500 ppm of active ingredient) [%]	Eff. % (Fusarium graminearum) [%]	Eff. % (Pyrenophora teres; 500 ppm of active ingredient) [%]	Eff. % (Pyricularia oryzae) [%]	Eff. % (Botrytis cinerea; 500 ppm of active ingredient) [%]	Eff. % (Fusarium culmorum) [%]	Eff. % (Septoria tritici; 500 ppm of active ingredient) [%]	Eff. % [3] [%]	Eff. % (Venturia inaequalis) [%]	Eff. % (Phakopsora pachyrhizi; 100 ppm of active ingredient) [%]	Eff. % (Phakopsora pachyrhizi; 10 ppm of active ingredient) [%]	other results
OC(Cc1cccc(Cl)n1)(Cn1cncn1)C1(Cl)CC1 (stereo not shown) [Example I-29]	100	100	100	100	2.18^[a]	97	100	95	70	94	100	100	100	–	–	–	–
OC(Cc1c(Cl)cncc1Cl)(Cn1cncn1)C1(F)CC1 (racemic) [Example I-62]	100	100	100	100	1.86^[a]	98	100	100	–	100	83	100	100	100	99	–	–
CC(CF)(CF)C(O)(Cc1ccnc(Cl)c1F)Cn1cncn1 (stereo not shown) [Example I-61]	100	75	100	100	1.87^[a]	98	100	93	–	99	100	100	100	–	–	80	–
OC(Cc1ccncc1F)(Cn1cncn1)C1(F)CC1 (stereo not shown) [Example I-19]	–	100	–	100	0.91^[a]	–	100	–	100	–	100	–	100	–	–	96	Eff. % (Uromyces appendiculatus; 100 ppm of active ingredient): 98%; Eff. % (Sphaerotheca fuliginea; 100 ppm of active ingredient): 100%; Eff. % (Puccinia recondita; 100 ppm of active ingredient): 88%; Eff. % (Pyrenophora teres; 100 ppm of active ingredient): 75%; Eff. % (Botrytis cinerea; 100 ppm of active ingredient): 100%; Eff. % (Septoria tritici; 100 ppm of active ingredient): 75%
OC(CCc1ccc(Cl)cc1)(Cc1ccncc1Cl)Cn1cncn1 (racemic) [Example I-69]	100	89	100	100	2.40^[a]	98	71	93	–	–	–	100	–	100	91	–	–
OC(Cc1cccnc1Cl)(Cn1cncn1)C1(F)CC1 (stereo not shown) [Example I-25]	–	100	–	100	1.42^[a]	–	100	–	–	–	100	–	100	89	99	–	Eff. % (Uromyces appendiculatus; 100 ppm of active ingredient): 100%; Eff. % (Sphaerotheca fuliginea; 100 ppm of active ingredient): 100%; Eff. % (Puccinia recondita; 100 ppm of active ingredient): 100%; Eff. % (Pyrenophora teres; 100 ppm of active ingredient): 97%; Eff. % (Botrytis cinerea; 100 ppm of active ingredient): 99%; Eff. % (Septoria tritici; 100 ppm of active ingredient): 100%
OC(Cc1ccnc(Cl)c1)(Cn1cncn1)C1(Cl)CC1 (stereo not shown) [Example I-39]	100	100	100	100	1.76^[a]	97	100	100	80	99	100	100	100	–	–	88	–
OC(Cc1ccnc(Cl)c1Cl)(Cn1cncn1)C1(Cl)CC1 (racemic) [Example I-82]	100	100	100	100	2.39^[a]	98	100	97	100	100	–	100	100	95	100	–	–
OC(Cc1ccnc(Cl)c1F)(Cn1cncn1)C1(Cl)CC1 (stereo not shown) [Example I-60]	100	100	100	100	2.02^[a]	98	100	100	–	100	83	97	100	100	100	–	–
CC(C)(F)C(O)(Cc1ccncc1Cl)Cn1cncn1 (racemic) [Example I-76]	100	–	100	100	1.20^[a]	100	86	79	71	100	–	100	100	74	100	–	–
CC(CF)(CF)C(O)(Cc1ccncc1F)Cn1cncn1 (stereo not shown) [Example I-21]	–	94	–	100	1.27^[a]	–	100	–	–	–	100	–	100	–	–	93	Eff. % (Uromyces appendiculatus; 100 ppm of active ingredient): 100%; Eff. % (Sphaerotheca fuliginea; 100 ppm of active ingredient): 100%; Eff. % (Puccinia recondita; 100 ppm of active ingredient): 98%; Eff. % (Septoria tritici; 100 ppm of active ingredient): 100%
OC(Cc1nccnc1I)(Cn1cncn1)C1(Cl)CC1 (stereo not shown) [Example I-54]	100	–	100	100	2.07^[a]	97	100	–	78	100	–	100	100	89	99	–	–
